# Results reported in PMC7897990, “TriTOX: A novel Trichomonas vaginalis assay platform for high-throughput screening of compound libraries” (International Journal for Parasitology: Drugs and Drug …, 2021).
# Like-named read-outs stand apart in the source and are kept apart here.
# Legend:
# [1] = tested on: Trichomonas vaginalis G3 trophozoites; assay: microbe, parasite or virus in culture; conditions: 48 h
# [2] = tested on: nontumorigenic neonatal foreskin fibroblast (NFF) cell line
# [3] = tested on: Trichomonas vaginalis G3 trophozoites; conditions: HTS, parasite screen at 1 µg/mL; for T.vaginalis_Absorbance_Rep1: replicate 1, raw absorbance; for T.vaginalis_Absorbance_Rep2: replicate 2, raw absorbance
# [4] = read-out: T.vaginalis_%inb_Rep1
# [5] = read-out: T.vaginalis_%inb_Rep2
# [6] = NFF fibroblasts, single concentration 5 µg/mL
SMILES,"inhibition of growth at 1 µg/mL [1, 4]","inhibition of growth at 1 µg/mL [1, 5]","NFF_Activity ([2]; NFF fibroblast screen at 5 µg/mL, A = active, I = inactive)",T.vaginalis_Absorbance_Rep1 [3],T.vaginalis_Absorbance_Rep2 [3],"NFF_Activity [2, 6]"
CC[C@H]1CC2CN3CCc4c([nH]c5ccc(OC)cc45)[C@](C(=O)OC)(C2)[C@H]13 (stereo in doubt) [Voacangine],9.91%,13.7%,I (otherwise these were reported as inactive (I)),–,–,–
C=C1CC[C@H]2C(C)(C)CCC[C@]2(C)[C@H]1C[C@@]12C[C@H]3C(=O)N4CCC[C@H]4C(=O)N3[C@@H]1Nc1ccccc12 [Drimentine C],10.4%,13.8%,–,0.907,0.85,–
Cc1cc(O)c2c(c1)C(=O)c1cc(O)cc(O)c1C2=O [Emodin],17.8%,12.6%,–,1.052,0.831,–
CCc1c(Cl)c(O)c(Cl)c(O)c1C(=O)O[C@H]1[C@H](O)[C@H](OC)[C@H](OC/C2=C\C=C\C[C@H](O)/C(C)=C/[C@H](CC)[C@@H](O[C@@H]3OC(C)(C)[C@@H](OC(=O)C(C)C)[C@H](O)[C@@H]3O)/C(C)=C/C(C)=C/C[C@@H]([C@@H](C)O)OC2=O)O[C@@H]1C [Fidaxomicin],11.5%,10.1%,–,0.922,0.759,–
CS(=O)(=O)c1ccc([C@@H](O)[C@@H](CF)NC(=O)C(Cl)Cl)cc1 [Florfenicol],7.7%,9.33%,–,0.852,0.749,–
CC(=O)O[C@H]1C[C@@]2(C)[C@@H](C[C@@H](O)[C@H]3[C@@]4(C)CC[C@@H](O)[C@@H](C)[C@@H]4CC[C@@]32C)/C1=C(\CCC=C(C)C)C(=O)O [Fusidate sodium],4.26%,1.6%,–,0.786,0.66,–
COC1=C2C[C@@H](C)C[C@H](OC)[C@H](O)[C@@H](C)/C=C(\C)[C@H](OC(N)=O)[C@@H](OC)/C=C\C=C(/C)C(=O)NC(=CC1=O)C2=O [Geldanamycin],13%,14.1%,–,0.958,0.854,–
COC1=CC(=O)C[C@@H](C)[C@]12Oc1c(Cl)c(OC)cc(OC)c1C2=O [Griseofulvin],12.4%,12.1%,–,0.947,0.823,–
CC(=O)O[C@H]1CC[C@@]2(C)[C@@H](CC[C@@H]3[C@@H]2CC(=O)[C@]2(C)[C@@H]4[C@H](C[C@@H]32)O[C@]2(CC[C@@H](C)CO2)[C@H]4C)C1 [Hecogenin acetate],10.4%,14.1%,–,0.908,0.854,–
CC(=O)O[C@H]1C[C@@]2(C)[C@@H](CC[C@H]3[C@@]4(C)C=CC(=O)[C@@H](C)[C@@H]4[C@H](OC(C)=O)C(=O)[C@@]32C)/C1=C(\CCC=C(C)C)C(=O)O [Helvolic acid],5.19%,10.6%,–,0.864,0.811,–
CO[C@@]12[C@H](COC(N)=O)C3=C(C(=O)C(C)=C(N)C3=O)N1C[C@@H]1N[C@@H]12 [Mitomycin C],11.5%,3.72%,–,–,–,I (otherwise these were reported as inactive (I))
CC[C@H]1C[C@@H]2CC[C@@H](O2)[C@@H](C)C(=O)O[C@H](C)C[C@H]2CC[C@H](O2)[C@H](C)C(=O)O[C@@H](C)C[C@@H]2CC[C@@H](O2)[C@@H](C)C(=O)O[C@H](C)C[C@H]2CC[C@H](O2)[C@H](C)C(=O)O1 [Monactin],10%,10.7%,–,–,–,I (otherwise these were reported as inactive (I))
